Measured values from ChEMBL document CHEMBL1201862, “PubChem BioAssay data set” (2004).
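Grown in 96-well plates, cells were treated for 48 hours with each compound at five concentrations. Insufficient inhibition: endpoint recorded as highest concentration tested. GI50 = concentration required for 50% inhibition of growth.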 The source made the active and inactive calls. Cut-off read from the data, not from the text of the source: active = GI50 up to about 1.1 µM and inactive = higher.

What was measured:
Experiment in all cases: NCI-60 cell line screen, 48 h
786-0 = tested on: 786-0
A498 = tested on: A498
A549 = tested on: A549
ACHN = tested on: ACHN
CAKI-1 = tested on: CAKI-1
CCRF-CEM = tested on: CCRF-CEM
COLO 205 = tested on: COLO 205
DU-145 = tested on: DU-145
EKVX = tested on: EKVX
HCC 2998 = tested on: HCC 2998
HCT-116 = tested on: HCT-116
HCT-15 = tested on: HCT-15
HL-60 = tested on: HL-60
HOP-62 = tested on: HOP-62
HOP-92 = tested on: HOP-92
HT-29 = tested on: HT-29
Hs-578T = tested on: Hs-578T
IGROV-1 = tested on: IGROV-1
K562 = tested on: K562
KM12 = tested on: KM12
LOX IMVI = tested on: LOX IMVI
MCF7 = tested on: MCF7
MDA-MB-231 = tested on: MDA-MB-231
MDA-N = tested on: MDA-N
MOLT-4 = tested on: MOLT-4
Malme-3M = tested on: Malme-3M
NCI-H23 = tested on: NCI-H23
NCI-H460 = tested on: NCI-H460
NCI/ADR-RES = tested on: NCI/ADR-RES
OVCAR-3 = tested on: OVCAR-3
OVCAR-4 = tested on: OVCAR-4
OVCAR-5 = tested on: OVCAR-5
OVCAR-8 = tested on: OVCAR-8
PC-3 = tested on: PC-3
RPMI-8226 = tested on: RPMI-8226
SF-268 = tested on: SF-268
SF-295 = tested on: SF-295
SF-539 = tested on: SF-539
SK-MEL-28 = tested on: SK-MEL-28
SK-MEL-2 = tested on: SK-MEL-2
SK-MEL-5 = tested on: SK-MEL-5
SK-OV-3 = tested on: SK-OV-3
SN12C = tested on: SN12C
SNB-19 = tested on: SNB-19
SNB-75 = tested on: SNB-75
SR = tested on: SR
SW-620 = tested on: SW-620
T47D = tested on: T47D
TK-10 = tested on: TK-10
U-251 = tested on: U-251
UACC-257 = tested on: UACC-257
UO-31 = tested on: UO-31
BT-549 = tested on: BT-549
M14 = tested on: M14
MDA-MB-435 = tested on: MDA-MB-435
NCI-H226 = tested on: NCI-H226
NCI-H522 = tested on: NCI-H522
RXF 393 = tested on: RXF 393
UACC-62 = tested on: UACC-62

Measured: GI50

O=C(Nc1ccccc1)N(C1=NCC(CI)S1)c1ccc(F)c(F)c1 (configuration not stated)
28.1 µM: HCT-15
inactive: 786-0 43.2 µM | A498 24.9 µM | A549 26.4 µM | ACHN 49.4 µM | CAKI-1 24.1 µM | CCRF-CEM 19.3 µM | COLO 205 56.1 µM | DU-145 > 100 µM | EKVX > 100 µM | HCC 2998 55.8 µM | HCT-116 29.1 µM | HL-60 21.4 µM | HOP-62 > 100 µM | HOP-92 7.03 µM | HT-29 27 µM | Hs-578T 64 µM | IGROV-1 38.8 µM | K562 27 µM | KM12 32.6 µM | LOX IMVI 15.2 µM | MCF7 22.4 µM | MDA-MB-231 24.8 µM | MDA-N 24.6 µM | MOLT-4 19.5 µM | Malme-3M 55.7 µM | NCI-H23 29.2 µM | NCI-H460 35.2 µM | NCI/ADR-RES 30.8 µM | OVCAR-3 28.3 µM | OVCAR-4 29.4 µM | OVCAR-5 > 100 µM | OVCAR-8 47.8 µM | PC-3 25.4 µM | RPMI-8226 21.2 µM | SF-268 21.3 µM | SF-295 > 100 µM | SF-539 33.2 µM | SK-MEL-28 12.4 µM | SK-MEL-2 23.9 µM | SK-MEL-5 17.3 µM | SK-OV-3 > 100 µM | SN12C 81.5 µM | SNB-19 > 100 µM | SNB-75 12.6 µM | SR 23.8 µM | SW-620 28.2 µM | T47D 18.3 µM | TK-10 44 µM | U-251 54.1 µM | UACC-257 31 µM | UO-31 44.7 µM

O=C(NI1OC(=O)c2ccccc21)c1ccc(Cl)cc1
inactive: 786-0 > 100 µM | A498 > 100 µM | A549 > 100 µM | ACHN > 100 µM | BT-549 > 100 µM | CAKI-1 > 100 µM | CCRF-CEM 85.5 µM | COLO 205 > 100 µM | DU-145 > 100 µM | EKVX > 100 µM | HCC 2998 76.2 µM | HCT-116 > 100 µM | HL-60 > 100 µM | HOP-62 > 100 µM | HOP-92 > 100 µM | HT-29 > 100 µM | IGROV-1 > 100 µM | K562 28.4 µM | KM12 > 100 µM | LOX IMVI > 100 µM | M14 > 100 µM | MCF7 > 100 µM | MDA-MB-231 > 100 µM | MDA-MB-435 > 100 µM | NCI-H226 60.4 µM | NCI-H23 > 100 µM | NCI-H460 > 100 µM | NCI-H522 14.1 µM | NCI/ADR-RES > 100 µM | OVCAR-3 > 100 µM | OVCAR-4 > 100 µM | OVCAR-5 > 100 µM | OVCAR-8 > 100 µM | PC-3 > 100 µM | RPMI-8226 > 100 µM | RXF 393 > 100 µM | SF-268 > 100 µM | SF-295 > 100 µM | SF-539 > 100 µM | SK-MEL-28 > 100 µM | SK-MEL-2 > 100 µM | SK-MEL-5 > 100 µM | SK-OV-3 > 100 µM | SN12C > 100 µM | SNB-75 > 100 µM | SW-620 34.4 µM | T47D > 100 µM | TK-10 > 100 µM | U-251 45.7 µM | UACC-257 > 100 µM | UACC-62 51.6 µM | UO-31 43.2 µM
96.6 µM: HCT-15

CN(C)CCCOC(=O)C(O)(Cc1ccccc1)C1CC1 (configuration not stated)
inactive: 786-0 > 100 µM | A498 > 100 µM | A549 > 100 µM | ACHN > 100 µM | CAKI-1 > 100 µM | CCRF-CEM > 100 µM | COLO 205 > 100 µM | DU-145 > 100 µM | EKVX > 100 µM | HCC 2998 > 100 µM | HCT-116 > 100 µM | HL-60 > 100 µM | HOP-62 > 100 µM | HOP-92 > 100 µM | HT-29 > 100 µM | Hs-578T > 100 µM | IGROV-1 > 100 µM | K562 > 100 µM | KM12 > 100 µM | LOX IMVI > 100 µM | M14 > 100 µM | MCF7 > 100 µM | MDA-MB-231 > 100 µM | MDA-MB-435 > 100 µM | MDA-N > 100 µM | MOLT-4 > 100 µM | Malme-3M > 100 µM | NCI-H226 > 100 µM | NCI-H23 > 100 µM | NCI-H460 > 100 µM | NCI-H522 > 100 µM | NCI/ADR-RES > 100 µM | OVCAR-3 > 100 µM | OVCAR-4 > 100 µM | OVCAR-5 > 100 µM | OVCAR-8 > 100 µM | PC-3 > 100 µM | RPMI-8226 > 100 µM | RXF 393 > 100 µM | SF-268 > 100 µM | SF-295 > 100 µM | SF-539 > 100 µM | SK-MEL-28 > 100 µM | SK-MEL-2 > 100 µM | SK-MEL-5 > 100 µM | SK-OV-3 > 100 µM | SN12C > 100 µM | SNB-19 > 100 µM | SNB-75 79.8 µM | SR > 100 µM | SW-620 > 100 µM | T47D > 100 µM | TK-10 > 100 µM | U-251 > 100 µM | UACC-257 > 100 µM | UACC-62 > 100 µM
> 100 µM: HCT-15
